“Also recorded” adds a separate entry of the source.
Test system: NCIES0808 cells
Assay: Two-dimensional gel analysis with MS identification
Format: cell-based, human
Experimental: NCIES0808 cells were plated in T25 flasks in experimental conditions similar to those described in the PCR array section. At the end of the treatment time, cells were trypsinized as described in the PCR array section and washed twice in ice cold TBS and snap frozen in liquid nitrogen. Further processing for Western blots was carried out at UMass.
Before isoelectric focusing (IEF), samples were solubilized in 40 mM Tris, 7 M urea, 2 M thiourea, and 1% C7 zwitterionic detergent, reduced with tributylphosphine, and alkylated with 10 mM acrylamide for 90 min at room temperature. After the sample was run through a 10-kDa cutoff Amicon Ultra device with at least 3 volumes of the resuspension buffer, consisting of 7 M urea, 2 M thiourea, and 2% CHAPS to reduce the conductivity of the sample. One hundred micrograms of protein were subjected to IEF on 11-cm pH 3 to 10, pH 4 to 7 or pH 6 to 11 immobilized pH gradient strips (GE, Amersham, USA) to 100,000 volts hour. After IEF, immobilized pH gradient strips were equilibrated in 6 M urea, 2% SDS, 50 mM Tris-acetate buffer, pH 7.0, and 0.01% bromphenol blue and subjected to SDS-polyacrylamide gel electrophoresis on 8 to 16% Tris-HCl Precast Gel, 1 mm (Bio-Rad, USA). The gels were run in duplicate. They were fixed, stained in SYPRO Ruby, 80 mL/gel (Invitrogen, USA) and imaged on Fuji FLA-5100 laser scanner.
Analysis of all gel images was performed using Progenesis Discovery and Pro (Nonlinear Dynamics Inc., Newcastle upon Tyne, UK). After spot detection, matching, background subtraction, normalization, and filtering, data for SYPRO Ruby gel images was exported. […] Manual annotation of each statistically significant spots was performed to assure accurate detection.
Tryptic peptides extracted from respective gel plugs were dried down to a 10 ul volume and acidified with 1-2 ul of 1% TFA. Samples were loaded on an uC18 Zip Tip (Millipore, Corp) after pre-equilibration in 0.1% TFA. After washing with 2×10 ul aliquots of 0.1% TFA, samples were deposited directly onto the MALDI sample target using 1 ul of Matrix solution 15 mg/ml of 2,5 Dihydroxybenzoic Acid (MassPrep DHB, Waters Corp.) in 50:50 Acetonitrile: 0.1% TFA. Samples were allowed to air dry prior to insertion into the mass spectrometer. Analysis were performed on a Kratos Axima QIT (Shimadzu Instruments) matrix-assisted-laser desorption/ionization (MALDI) mass spectrometer. Peptides were analyzed in positive ion mode in mid mass range (700-3000 Da). The instrument was externally calibrated with Angiotensin II (1046.54), P14R (1533.86) and ACTH (18-39) 2465.20 Da. Precursors were selected based on signal intensity at a mass resolution width of 250 for CID fragmentation using Argon as the collision gas. Database searches were performed in house with Mascot (Matrix Sciences, Ltd.) using the Peptide Mass Fingerprint program for MS data and the MS/MS Ion Search program for CID data. All identifications were confirmed or established with CID (MS/MS) data.
NCIES0808 cells treated for 3, 6 and 24 hours were subjected to 2-D gel electrophoreses and were analyzed to identify protein-level changes relative to the control media samples. A comparative analysis of spots across multiple duplicated gels was performed, comparing the “control media sample” against all of the treated samples at both the 50 uM and 100 uM doses. The analysis included the identification of spot changes over the time course due to an increase, decrease, or post-translational modification.

[1] = 24 hours, 50 uM Q10, − = down, 1 = no change
[2] = 24 hours, 100 uM Q10, − = down, 1 = no change

Substance: Coenzyme Q10 [CoQ10]
- Spot 372, lamin B1: modulation vs control media [1]: 1
- Spot 387, SMT 3 suppressor of mif two 3 homolog 2: modulation vs control media [1]: 1
- Spot 388, heat shock protein 27 kD: modulation vs control media [1]: 1.1
- Spot 396, hnRNP C1/C2: modulation vs control media [1]: −1.4
- Spot 436, eukaryotc translation elongation factor 1 beta 2: modulation vs control media [1]: 1
- Spot 490, Similar to HSPC-300: modulation vs control media [1]: −1.2
- Spot 506, heat shock protein 27 kD: modulation vs control media [1]: −1.2
- Spot 511, eukaryotic translation elongation factor 1 delta: modulation vs control media [1]: 1
- Spot 524, eukaryotic translation elongation factor 1 delta: modulation vs control media [1]: 1
- Spot 532, putative c-myc-responsive isoform 1: modulation vs control media [1]: 1
- Spot 557, lamin B1: modulation vs control media [1]: 1
- Spot 575, ER lipid raft associated 2 isoform 1; beta actin: modulation vs control media [1]: 1.1
- Spot 583, Dismutase Cu/Zn Superoxide: modulation vs control media [1]: 1.1
- Spot 622, DNA directed DNA polymerase epislon 3; (canopy 2 homolog): modulation vs control media [1]: −1.1
- Spot 646, signal sequence receptor 1 delta: modulation vs control media [1]: 1
- Spot 16, alpha 2-HS glycoprotein (Bos Taurus, cow): modulation vs control media [2]: 5.9
- Spot 130, ribosomal proten P2; histone H2A: modulation vs control media [2]: −4.2
- Spot 180, beta actin: modulation vs control media [2]: 3
- Spot 234, hnRNP C1/C2: modulation vs control media [2]: −2.6
- Spot 244, heat shock protein 70 kD: modulation vs control media [2]: 1.7
- Spot 275, microtubule associated protein: modulation vs control media [2]: −1.8
- Spot 311, beta tubulin: modulation vs control media [2]: 2.6
- Spot 314, proteasome alpha 3: modulation vs control media [2]: −2.2
- Spot 363, ATP dependent helicase II: modulation vs control media [2]: 2.1
- Spot 369, eukaryotic translation elongation factor 1 delta: modulation vs control media [2]: −2
- Spot 372, lamin B1: modulation vs control media [2]: −2.1
- Spot 387, SMT 3 suppressor of mif two 3 homolog 2: modulation vs control media [2]: −1.95
- Spot 388, heat shock protein 27 kD: modulation vs control media [2]: −1.7
- Spot 396, hnRNP C1/C2: modulation vs control media [2]: −2
- Spot 436, eukaryotc translation elongation factor 1 beta 2: modulation vs control media [2]: −1.9
- Spot 490, Similar to HSPC-300: modulation vs control media [2]: 1.5
- Spot 506, heat shock protein 27 kD: modulation vs control media [2]: −1.9
- Spot 511, eukaryotic translation elongation factor 1 delta: modulation vs control media [2]: −1.6
- Spot 524, eukaryotic translation elongation factor 1 delta: modulation vs control media [2]: −1.7
- Spot 532, putative c-myc-responsive isoform 1: modulation vs control media [2]: 1.4
- Spot 557, lamin B1: modulation vs control media [2]: −1.6
- Spot 575, ER lipid raft associated 2 isoform 1; beta actin: modulation vs control media [2]: 1.6
- Spot 583, Dismutase Cu/Zn Superoxide: modulation vs control media [2]: −1.3
- Spot 622, DNA directed DNA polymerase epislon 3; (canopy 2 homolog): modulation vs control media [2]: −1.6
- Spot 646, signal sequence receptor 1 delta: modulation vs control media [2]: 1.5
- Expression of proteosome subunits PSMA3, PSMB3, PSMB4 and ubiquitin enzymes (ubiquilin) (Ewing Sarcoma ES0808 cell line treated with CoQ10): sustained increases
- Ku70 (ATP dependent helicase II) level (Ewing Sarcoma ES0808 cell lines treated with CoQ10): decrease
- Proteins with observed increase in expression (value = protein), discussion A (Ewing Sarcoma cell line treated with CoQ10): ribosomal proteins (RPLP2); also recorded: eukaryotic translation initiation factors (EIF3G, EIF4A2); also recorded: eukaryotic translation elongation factors (EEF1B2, EEF1D); also recorded: heat shock proteins (HSP27, HSP60, HSP70); also recorded: dyenin
- hnRNP C1/C2 expression (persisted up to 24 hours): down-regulation

From US20130266557A1, “METHODS FOR TREATMENT OF A SARCOMA USING AN EPIMETABOLIC SHIFTER (COENZYME Q10)” (priority 2009, published 2013)
